Assay results as given in US11208412B2 (DAEGU-GYEONGBUK MEDICAL INNOVATION FOUNDATION, priority 2017, dated 2021).

Biological target: T1, recombinant LRRK2 kinase (Homo sapiens, UniProt Q5S007)
T1 construct: purchased Signal Chem, Richmond, BC, Canada
Test: LRRK2 kinase inhibition (Kinase-Glo luminescence)
Assay type: biochemical
Conditions: IC50 grade; 25 μmol/L ATP, LRRKtide, 30° C. 2 hours; read-out: Enzyme activity LRRK2
Protocol: Upon completion of the reaction, an equal amount of Kinase-Glo (Promega, Madison, Wis.) solution was added thereto, followed by reaction for 40 minutes. A detection solution was added thereto, followed by further reaction at room temperature for 30 minutes. Then, IC50 of kinase was calculated by measuring the amount of luciferase using a microplate ELISA reader (Bio-Tek).

T1 sequence (Q5S007 whole entry): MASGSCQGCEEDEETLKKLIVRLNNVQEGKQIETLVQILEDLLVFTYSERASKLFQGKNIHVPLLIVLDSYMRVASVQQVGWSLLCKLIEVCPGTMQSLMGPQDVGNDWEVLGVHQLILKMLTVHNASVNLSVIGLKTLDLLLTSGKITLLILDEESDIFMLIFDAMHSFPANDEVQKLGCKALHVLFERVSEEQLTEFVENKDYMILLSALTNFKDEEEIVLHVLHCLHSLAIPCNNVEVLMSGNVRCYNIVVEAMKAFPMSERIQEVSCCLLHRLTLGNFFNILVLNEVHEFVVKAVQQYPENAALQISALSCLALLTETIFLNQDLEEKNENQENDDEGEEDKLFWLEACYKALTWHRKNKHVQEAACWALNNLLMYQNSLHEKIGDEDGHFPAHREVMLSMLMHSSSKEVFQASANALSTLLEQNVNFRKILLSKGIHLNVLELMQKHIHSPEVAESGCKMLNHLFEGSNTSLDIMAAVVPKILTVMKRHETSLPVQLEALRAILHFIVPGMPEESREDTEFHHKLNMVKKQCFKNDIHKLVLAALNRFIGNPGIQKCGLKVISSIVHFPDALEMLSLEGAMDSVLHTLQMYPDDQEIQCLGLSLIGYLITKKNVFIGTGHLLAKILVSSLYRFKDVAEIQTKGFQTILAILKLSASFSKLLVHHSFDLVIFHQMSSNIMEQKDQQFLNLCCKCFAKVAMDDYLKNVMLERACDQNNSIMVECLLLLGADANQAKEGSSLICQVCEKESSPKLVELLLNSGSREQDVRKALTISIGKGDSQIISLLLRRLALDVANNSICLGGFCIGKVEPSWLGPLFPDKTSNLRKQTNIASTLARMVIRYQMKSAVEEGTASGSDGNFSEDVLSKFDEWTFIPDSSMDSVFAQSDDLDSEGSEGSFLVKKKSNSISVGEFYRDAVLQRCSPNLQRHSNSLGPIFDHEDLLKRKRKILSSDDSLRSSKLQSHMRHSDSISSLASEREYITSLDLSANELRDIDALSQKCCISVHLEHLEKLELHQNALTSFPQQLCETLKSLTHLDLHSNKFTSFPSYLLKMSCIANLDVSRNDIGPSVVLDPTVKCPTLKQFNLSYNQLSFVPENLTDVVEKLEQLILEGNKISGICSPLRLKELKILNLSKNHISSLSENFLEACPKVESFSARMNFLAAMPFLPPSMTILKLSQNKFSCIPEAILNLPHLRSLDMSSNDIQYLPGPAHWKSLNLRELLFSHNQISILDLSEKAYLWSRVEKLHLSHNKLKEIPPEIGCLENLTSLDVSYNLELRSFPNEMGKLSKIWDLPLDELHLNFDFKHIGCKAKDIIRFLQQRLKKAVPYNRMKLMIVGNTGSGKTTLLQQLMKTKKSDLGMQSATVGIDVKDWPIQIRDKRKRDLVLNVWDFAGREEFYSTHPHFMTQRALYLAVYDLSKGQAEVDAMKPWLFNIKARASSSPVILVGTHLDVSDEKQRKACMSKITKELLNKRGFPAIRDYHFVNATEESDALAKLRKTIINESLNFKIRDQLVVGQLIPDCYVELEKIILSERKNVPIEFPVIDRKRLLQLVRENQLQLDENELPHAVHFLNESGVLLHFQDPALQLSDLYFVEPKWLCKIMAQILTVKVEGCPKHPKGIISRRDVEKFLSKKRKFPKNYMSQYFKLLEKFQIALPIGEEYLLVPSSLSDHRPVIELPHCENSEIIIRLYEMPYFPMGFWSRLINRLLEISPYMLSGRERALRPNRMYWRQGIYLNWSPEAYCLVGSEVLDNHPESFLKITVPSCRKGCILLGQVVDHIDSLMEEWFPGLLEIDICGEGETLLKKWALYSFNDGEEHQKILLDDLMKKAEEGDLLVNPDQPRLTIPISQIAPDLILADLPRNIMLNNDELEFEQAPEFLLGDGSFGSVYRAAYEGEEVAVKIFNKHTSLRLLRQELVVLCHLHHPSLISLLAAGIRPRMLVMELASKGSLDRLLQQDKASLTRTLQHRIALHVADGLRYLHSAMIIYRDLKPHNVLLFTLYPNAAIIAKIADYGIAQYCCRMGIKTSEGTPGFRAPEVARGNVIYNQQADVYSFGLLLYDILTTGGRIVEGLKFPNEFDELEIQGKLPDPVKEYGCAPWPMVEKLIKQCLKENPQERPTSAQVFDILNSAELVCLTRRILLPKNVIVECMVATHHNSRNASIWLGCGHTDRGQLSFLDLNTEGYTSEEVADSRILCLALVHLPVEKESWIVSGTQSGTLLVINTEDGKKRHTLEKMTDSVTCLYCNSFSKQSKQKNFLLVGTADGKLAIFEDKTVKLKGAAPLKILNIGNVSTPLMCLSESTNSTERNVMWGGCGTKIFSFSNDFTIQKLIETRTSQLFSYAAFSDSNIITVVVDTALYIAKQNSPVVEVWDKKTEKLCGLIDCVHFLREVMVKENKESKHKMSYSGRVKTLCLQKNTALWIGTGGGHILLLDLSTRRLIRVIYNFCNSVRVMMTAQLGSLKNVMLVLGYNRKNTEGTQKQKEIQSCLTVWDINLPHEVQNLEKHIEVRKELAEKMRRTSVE

SMILES	IC50 [nM]
COc1cc(C(=O)N2CCC(N3CCOCC3)CC2)c(F)cc1Nc1nc(O[C@H]2CCOC2)c2c(C#N)c[nH]c2n1 [Example 93, (S)-2-((5-fluoro-2-methoxy-4-(4-morpholinopiperidine-1-carbonyl)phenyl)amino)-4-((tetrahydrofuran-3-yl)oxy)-7H-pyrrolo[2,3-d]pyrimidine-5-carbonitrile]	< 10
CNc1nc(Nc2cc(F)c(C(=O)NC3CCN(C)CC3)cc2OC)nc2[nH]cc(C#N)c12 [Example 65, 4-((5-cyano-4-(methylamino)-7H-pyrrolo[2,3-d]pyrimidine-2-yl)amino)-2-fluoro-5-methoxy-N-(1-methylpiperidine-4-yl)benzamide]	< 10
COc1cc(C(=O)N2CCOCC2)c(F)cc1Nc1nc(NC2(C)CC2)c2c(C#N)c[nH]c2n1 [Example 37, 2-((5-fluoro-2-methoxy-4-(morpholine-4-carbonyl)phenyl)amino)-4-((1-methylcyclopropyl)amino)-7H-pyrrolo[2,3-d]pyrimidine-5-carbonitrile]	< 10
COc1cc(C(=O)N2CCOCC2)ccc1Nc1nc(NC2CC2)c2c(C(F)(F)F)c[nH]c2n1 [Example 118, (4-((4-(cyclopropylamino)-5-(trifluoromethyl)-7H-pyrrolo[2,3-d]pyrimidine-2-yl)amino)-3-methoxyphenyl)(morpholino)methanone]	< 10
CC1(Nc2nc(Nc3cnn([C@H]4CCN(C5COC5)C[C@@H]4F)c3)nc3[nH]cc(C#N)c23)CC1 [Example 54, 2-((1-((3S,4S)-3-fluoro-1-(oxetane-3-yl)piperidine-4-yl)-1H-pyrazole-4-yl)amino)-4-((methylcyclopropyl)amino)-7H-pyrrolo[2,3-d]pyrimidine-5-carbonitrile]	< 10
CCNc1nc(Nc2cnn([C@H]3CCN(C4COC4)C[C@@H]3F)c2Cl)nc2[nH]cc(C#N)c12 [Example 51, 2-((5-chloro-1-((3S,4S)-3-fluoro-1-(oxetane-3-yl)piperidine-4-yl)-1H-pyrazole-4-yl)amino)-4-(ethylamino)-7H-pyrrolo[2,3-d]pyrimidine-5-carbonitrile]	< 10
CCNc1nc(Nc2cn(C(C)(C)C#N)nc2Cl)nc2[nH]cc(C#N)c12 [Example 72, 2-((3-chloro-1-(2-cyanopropane-2-yl)-1H-pyrazole-4-yl)amino)-4-(ethylamino)-7H-pyrrolo[2,3-d]pyrimidine-5-carbonitrile]	< 10
F[C@H]1CN(C2COC2)CC[C@@H]1n1ncc(Nc2nc(NC3CC3)c3c(C(F)(F)F)c[nH]c3n2)c1Cl [Example 117, N^2-(5-chloro-1-((3S,4S)-3-fluoro-1-(oxetane-3-yl)piperidine-4-yl)-1H-pyrazole-4-yl)-N^4-cyclopropyl-5-(trifluoromethyl)-7H-pyrrolo[2,3-d]pyrimidine-2,4-diamine]	10 to 100
COc1cc(C(=O)N2CCO[C@@H](C)C2)ccc1Nc1nc(OC2(C)CC2)c2c(C#N)c[nH]c2n1 [Example 99, (S)-2-((2-methoxy-4-(2-methylmorpholine-4-carbonyl)phenyl)amino)-4-(1-methylcyclopropoxy)-7H-pyrrolo[2,3-d]pyrimidine-5-carbonitrile]	< 10
COc1cc(C(=O)N2CCO[C@H](C)C2)ccc1Nc1nc(OC2(C)CC2)c2c(C#N)c[nH]c2n1 [Example 98, (R)-2-((2-methoxy-4-(2-methylmorpholine-4-carbonyl)phenyl)amino)-4-(1-methylcyclopropoxy)-7H-pyrrolo[2,3d]carbonitrile]	10 to 100
